In US20220306737A1, “USE OF HIGH-AFFINITY, LIGAND-BLOCKING, HUMANIZED ANTI-T-CELL IMMUNOGLOBULIN DOMAIN AND MUCIN DOMAIN-3 (TIM-3) IGG4 ANTIBODY FOR THE TREATMENT OF MYELOFIBROSIS” (Novartis AG, priority 2019, published 2022):
“Also recorded” adds a separate entry of the source.

What was measured:
[1] = cited from earlier work
[2] = tested on: broad panel of 26 kinases; details: tested at 200 nM; cited from earlier work
[3] = target: JAK3 (Homo sapiens, UniProt P52333); details: at clinically relevant concentrations; cited from earlier work
[4] = MBG453 phase I/II development, impact on hematopoiesis; format: in vivo, human
[5] = CPDR001X2105 clinical study in AML/MDS subjects, tolerability; format: in vivo, human; details: 400 mg IV Q2W and 800 mg IV Q4W
Description: (§1) In this study, the selection of the MBG453 dose and regimen is based on the currently available clinical safety, efficacy, PK and PK/PD modeling information from the CMBG453X2101 in advanced solid tumors and CPDR001X2105 in AML and MDS trials for MBG453. For solid tumor subjects, both 800 mg IV Q4W and 400 mg IV every 2 weeks (Q2W) are predicted to give sustained target (TIM-3) occupancy of 90% in tumor in >90% of subjects. […] MBG453 single agent is also being evaluated in AML/MDS subjects in the CPDR001X2105 study with Q4W and Q2W regimens. The recommended dose in AML/MDS has not yet been determined, however it is not expected to be different from solid tumors, based on preliminary PK and safety data.

[6] = CMBG453X2101 clinical study in advanced solid tumors, safety; format: in vivo, human; details: any dose up to 1200 mg IV Q2W or Q4W
Description: as §1

Chain of JAK3 (P52333 whole entry, species assumed): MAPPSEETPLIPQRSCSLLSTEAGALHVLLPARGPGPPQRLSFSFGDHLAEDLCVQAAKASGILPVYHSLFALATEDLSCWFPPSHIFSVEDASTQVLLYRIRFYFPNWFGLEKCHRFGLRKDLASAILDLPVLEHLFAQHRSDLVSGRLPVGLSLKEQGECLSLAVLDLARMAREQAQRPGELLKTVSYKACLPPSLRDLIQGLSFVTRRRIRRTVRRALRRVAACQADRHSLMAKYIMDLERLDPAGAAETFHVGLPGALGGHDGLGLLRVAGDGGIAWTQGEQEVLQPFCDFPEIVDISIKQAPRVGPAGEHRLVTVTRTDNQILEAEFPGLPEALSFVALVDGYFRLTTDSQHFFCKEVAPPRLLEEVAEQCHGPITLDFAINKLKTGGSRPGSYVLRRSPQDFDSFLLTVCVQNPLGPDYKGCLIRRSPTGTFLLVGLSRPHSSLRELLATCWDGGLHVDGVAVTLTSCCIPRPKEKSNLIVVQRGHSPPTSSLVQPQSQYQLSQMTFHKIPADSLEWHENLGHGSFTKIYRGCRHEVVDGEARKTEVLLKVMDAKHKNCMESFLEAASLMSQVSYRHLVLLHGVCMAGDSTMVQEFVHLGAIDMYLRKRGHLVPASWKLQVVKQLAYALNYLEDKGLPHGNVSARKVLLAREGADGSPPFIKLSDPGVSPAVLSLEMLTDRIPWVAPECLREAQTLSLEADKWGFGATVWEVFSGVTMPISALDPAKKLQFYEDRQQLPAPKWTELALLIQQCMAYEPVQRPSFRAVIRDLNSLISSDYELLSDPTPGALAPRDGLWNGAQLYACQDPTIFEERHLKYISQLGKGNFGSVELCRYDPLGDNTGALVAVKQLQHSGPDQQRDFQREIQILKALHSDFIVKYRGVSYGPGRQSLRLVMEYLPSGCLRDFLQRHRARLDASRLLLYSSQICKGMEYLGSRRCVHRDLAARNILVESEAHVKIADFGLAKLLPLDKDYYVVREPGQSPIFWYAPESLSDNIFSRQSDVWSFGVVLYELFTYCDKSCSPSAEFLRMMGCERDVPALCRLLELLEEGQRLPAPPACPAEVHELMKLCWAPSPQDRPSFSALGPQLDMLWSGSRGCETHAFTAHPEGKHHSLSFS

Compound | effect on anemia ([1]; MF patients) | effect on splenomegaly (spleen size) and constitutional symptoms of MF ([1]; MF patients) | hematoxicity ([1]; human, in vivo) | inhibition of a broad panel of 26 kinases [2] [%] | inhibition of JAK3 [3] | impact on hematopoiesis [4] | tolerability [5] | safety signal [6]
N#CC[C@H](C1CCCC1)n1cc(-c2ncnc3[nH]ccc23)cn1 [Ruxolitinib, (R)-3-(4-(7H-pyrrolo[2,3-d]pyrimidin-4-yl)-1H-pyrazol-1-yl)-3-cyclopentylpropanenitrile] | does not improve | highly effective; also recorded: improvements | partial transient hematoxicity | < 30 | does not inhibit |  |  | 
MBG453: anti-TIM-3 antibody disclosed in US Patent Application Publication No. 2015/0218274 |  |  |  |  |  | has not been found to have a negative impact on hematopoiesis | well tolerated | No significant safety signal
